Laboratory results: US9549935B2, “Methods and compositions for treating migraines using noribogaine” (DemeRx, Inc., priority 2014, dated 2017)

Test: Plasma noribogaine glucuronide pharmacokinetics after single oral noribogaine doses in healthy volunteers
Assay type: in vivo, human
Conditions: for AUC0-216 of noribogaine glucuronide / AUC0-∞ of noribogaine glucuronide / Cmax of noribogaine glucuronide / Tmax of noribogaine glucuronide / t1/2 of noribogaine glucuronide: healthy volunteers, mean (SD), n = 6
Description: Blood was obtained for pharmacokinetic assessments pre-dose and then at 0.25, 0.5, 0.75, 1.0, 1.25, 1.5, 2, 2.5, 3, 3.5, 4, 4.5, 5, 5.5, 6, 7, 8, 10, 12, 14, 18, 24, 30, 36, 48, 60, 72, 96, 120, 168 and 216 hours post-dose. Samples were centrifuged and plasma stored at −70° C. until analyzed. Block 24 hour urine collections were obtained following study drug administration for the 30 and 60 mg cohorts. Aliquots were frozen at −20° C. until analyzed.
Plasma noribogaine glucuronide concentrations were determined in the 30 mg and 60 mg dose groups using a validated sensitive LCMSMS method. Sample preparation involved deproteinization of plasma samples with acetonitrile, drying the samples under a stream of nitrogen and reconstitution of sample with acetonitrile:B.P. water (5:95, v/v) containing 0.1% (v/v) formic acid. The compounds were separated by a 150×2.0 mm Luna 5 μm C18 column and detected with a triple-quadrupole API 4000 or 5000 mass spectrometer using electrospray ionization in positive mode and multiple reaction monitoring. Noribogaine-d4 was used as the internal standard. The precursor-product ion transition values for noribogaine glucuronide were m/z 472.8→297.3, and for the internal standard noribogaine-d4 m/z 301.1→122.2. Analyst® software was used for data acquisition and processing. The ratio of the peak area of noribogaine glucuronide to the internal standard noribogaine-d4 was used for calibration and measurement of the unknown concentration of noribogaine glucuronide. The LLOQ was 0.050 ng/ml noribogaine glucuronide. The calibration curve was between 0.050 and 6.400 ng/ml noribogaine glucuronide. Mobile phases was the same as method A. Binary flow: Initial concentration was 6% mobile phase B; hold at 6% mobile phase B for 0.5 minutes and linear rise to 90% mobile phase B over 2 minutes; hold at 90% mobile phase B for 1 minute and then drop back to 6% mobile phase B over 0.01 minute. Equilibrate system for 3.5 minutes. Total run time was 7 minutes. The within- and between-day assay precision was <11%, and the within- and between-day assay accuracy was <10%.
Noribogaine and noribogaine glucuronide concentrations above the limit of quantification were used to calculate pharmacokinetic parameters using model-independent methods. The maximum plasma concentration (Cmax) and time to maximum plasma concentration (Tmax) were the observed values. Plasma concentration data in the post-distribution phase of the plasma concentration-time plot were fitted using linear regression to the formula ln C=ln Co−t.Kel, where Co was the zero-time intercept of the extrapolated terminal phase and Kel was the terminal elimination rate constant. […] The area under the concentration-time curve (AUC) from time zero to the last determined concentration-time point (tf) in the post distribution phase was calculated using the trapezoidal rule. The area under the curve from the last concentration-time point in the post distribution phase (Ctf) to time infinity was calculated from AUCt-∞=Ctf/Kel. The concentration used for Ctf was the last determined value above the LLOQ at the time point. The total AUC0-∞ was obtained by adding AUCtf and AUCt-∞. Noribogaine apparent clearance (CL/F) was determined using the formula CL/F=Dose/AUC0-∞×1000, and apparent volume of distribution (Vd/F) was determined using the formula Vd/F=(CL/F)/Kel. Total urine noribogaine was the sum of both analytes.

[1] = 30 mg and 60 mg noribogaine dose groups, plasma
[2] = after single oral 30 mg noribogaine, plasma
[3] = after single oral 60 mg noribogaine, plasma

**Q.** Which “Mean half-life of plasma noribogaine glucuronide” value (30 mg and 60 mg noribogaine dose groups) does the source give for `CC[C@H]1C[C@@H]2C[C@H]3c4[nH]c5ccc(OC6OC(C(=O)O)C(O)C(O)C6O)cc5c4CCN(C2)[C@@H]13` (some centres unmarked) [Noribogaine glucuronide, noribogaine glucuronide] here?
**A.** Its value is 21 to 23 h.

**Q.** And the “time by which noribogaine glucuronide was detected in all subjects” value [1]?
**A.** The value was at most 0.75 h.

**Q.** What about the “time of peak noribogaine glucuronide concentrations after noribogaine dosing” value [1] of the same compound?
**A.** Its value is 3 to 4 h.

**Q.** What about the “AUC0-216 of noribogaine glucuronide” value [2] of the same compound?
**A.** The value was 25.7 (9.1) ng · hr/ml.

**Q.** What about the “AUC0-∞ of noribogaine glucuronide” value [2] of the same compound?
**A.** Its value is 25.8 (9.3) ng · hr/ml.

**Q.** And the “Cmax of noribogaine glucuronide” value [2]?
**A.** Its value is 1.8 (0.6) ng/ml.

**Q.** And the “Tmax of noribogaine glucuronide” value [2]?
**A.** Its value is 3.0 (0.6) hr.

**Q.** And the “t1/2 of noribogaine glucuronide” value [2]?
**A.** Its value is 20.6 (4.9) hr.

**Q.** What about the “AUC0-216 of noribogaine glucuronide” value [3] of the same compound?
**A.** The value was 65.0 (21.5) ng · hr/ml.

**Q.** And the “AUC0-∞ of noribogaine glucuronide” value [3]?
**A.** The value was 67.1 (21.9) ng · hr/ml.

**Q.** What about the “Cmax of noribogaine glucuronide” value [3] of the same compound?
**A.** Its value is 4.1 (1.2) ng/ml.

**Q.** And the “Tmax of noribogaine glucuronide” value [3]?
**A.** Its value is 3.8 (1.2) hr.

**Q.** What about the “t1/2 of noribogaine glucuronide” value [3] of the same compound?
**A.** The value was 23.1 (3.0) hr.

**Q.** And the “proportion of noribogaine glucuronide Cmax and AUC relative to noribogaine” value (both dose groups (30 mg and 60 mg))?
**A.** Its value is 3-4%.
